In patent US20250275938A1, “COMPOSITIONS AND METHODS FOR TREATMENT OF CANCER” (SCIROSBIO (FZC), priority 2022, published 2025):

How the values were obtained:
[1] = tested on: HEK293T (Human Embryonic Kidney) cells; assay: Trypan blue exclusion cytotoxicity on normal cell line; format: cell-based; settings: treated at IC50 values determined in U87MG and C6, 24 hours
Protocol: Cytotoxicity on a normal cell line.
Furthermore, to check for the cytotoxicity of the drugs, a trypan blue dye exclusion assay was performed on a normal cell line, HEK293T, using the IC50 values of each drug, individually and in combination, as determined in U87MG and C6 cells and shown in Table 2.

[2] = tested on: TBARS in C6 cells; assay: TBARS (MDA) assay, C6; format: cell-based, rat; settings: vs control
Protocol: Determination of TBARS levels. TBARS (thiobarbituric acid reactive substances), by-products of lipid peroxidation, were analyzed by measuring the concentration of malondialdehyde (MDA). The levels of MDA were measured in cell lysates using TBARS assay (Catalog No. 10009055, Cayman Chemical, Ann Arbor, USA). The concentration of lipid peroxides was calculated as an MDA equivalent using the extinction coefficient for the MDA-TBA complex of 1.56×10^5 M−1 cm^−1 at 532 nm.

[3] = tested on: SOD, CAT, GPx, GSH in U87MG glioma cells; assay: Antioxidant marker kits (SOD, CAT, GPx, GSH), U87MG; format: cell-based, human; settings: vs control
Protocol: Antioxidant markers. […] All experiments were carried out according to the manufacturer's instructions. Three independent biological replicates were performed for each condition.

[4] = tested on: VEGF; assay: Immunohistochemistry of tumor sections, VEGF; format: in vivo, rat; settings: i.p. 7 days; tumor-control 73.58%
Protocol: Immunohistochemistry. For immunohistochemistry (IHC) analysis, 4 μm thick tissue sections were deparaffinized in xylene and hydrated by immersing in a series of graded ethanol concentration (100%, 95%, 75% and 50%). Endogenous peroxidase activity was blocked by incubating sections in 3% H2O2 solution prepared in methanol at room temperature for 10 minutes and were washed with PBS twice for 5 minutes each. Antigen retrieval was performed by immersing the slides in 300 ml of retrieval buffer (10 mM citrate buffer, pH 6.0) for one hour at 100° C. and were rinsed twice in PBS. Sections were then incubated with approximately 100 μl diluted primary antibodies of Ki67 (1:100 dilution, Elabscience, Wuhan, China) and Vascular Endothelial Growth Factor (VEGF) (1:100 dilution, Elabscience, Wuhan, China) for 30 minutes at room temperature. The slides were then washed twice with PBS and were then incubated with approximately 100 μl of diluted secondary antibody (Cat No. E-IR-R213, Elabscience, Wuhan, China) at room temperature for 30 minutes. Slides were then washed in PBS for 5 minutes, followed by incubation with approximately 100 μl diluted Horse Radish Peroxidase (HRP) conjugate for 30 minutes. […] The staining intensities were quantified using IHC Profiler, a plugin in ImageJ software, to determine the H-score (Histo score).

[5] = tested on: rat brain tissue; assay: Western blotting and ELISA of brain tissue proteins; format: in vivo; settings: i.p. 7 days
[6] = tested on: human hepatocellular carcinoma (HepG2) cells; assay: MTT cell viability assay, HepG2; format: cell-based; settings: 24 hours
Protocol: Cell lines and culture conditions. A human hepatocellular carcinoma (HepG2) and ovarian cancer (SKOV3) cells were obtained from National Centre for Cell Science (NCCS), Pune, India. The cells HepG2 and SKOV3 were sub-cultured in Eagle's Minimum Essential Medium (EMEM) and McCoy's 5a supplemented with 10% FBS at 5% CO2 and 37° C. […] The cells were allowed to attach 70% to the surface prior to treatment. A stock solution of all the drugs (10 mg/ml) was made in distilled H2O and diluted to the required concentrations. Suspensions were aspirated 10 times before treatment. Cells treated with vehicle control were used as a control.

O=C(O[C@@H]1Cc2c(O)cc(O)cc2O[C@@H]1c1cc(O)c(O)c(O)c1)c1cc(O)c(O)c(O)c1 [EGCG, [(2R,3R)-5,7-dihydroxy-2-(3,4,5-trihydroxyphenyl)-3,4-dihydro-2H-chromen-3-yl] 3,4,5-trihydroxybenzoate]
toxicity in normal HEK293T cells [1]: significant reduction in toxicity
TBARS levels [2]: significantly elevated
concentrations of antioxidant markers SOD, CAT, GPx, and GSH [3]: significantly enhanced
cytoplasmic positivity for VEGF (H-score) [4]: 44.45%
protein levels of HIF-1α [5]: significantly reduced
protein levels of Nrf-2 [5]: significantly reduced
cell viability (MTT), in words [6]: reduction in cell viability in a dose-dependent fashion
